Where two headings read alike, the source gives them in different places.
Legend:
metastasis = settings: several different animal models; cited from earlier work
[1] = system: platelet thrombus formation; settings: animals with thrombin induced thrombosis; cited from earlier work
[2] = system: renal interlobar and cortical arteries; settings: scleroderma patients, iloprost infusions; cited from earlier work
CTGF promoter = test: CTGF promoter/luciferase transfection assay in normal human fibroblasts; type: cell-based; settings: measured over a twenty-four hour period
Experimental: Normal human fibroblasts were grown to 80% confluence in a 6 well plate. 1 μg of DNA (CTGF promoter/luciferase) was added with 3 μl of FuGene 6 transfection reagent (Boehringer Mannheim 1814443); wherein the FuGene 6 was added dropwise to serum free culture medium and left at room temperature for five minutes and added to 1 µg of DNA in a separate tube for fifteen minutes. The DNA/FuGene 6 solution was then added dropwise to the cell culture by spreading around each well and swirling the flasks. The cell culture was returned to an incubator and the cells were grown again to confluence, approximately 36 hours. The cells were then switched to a serum free medium with ascorbate and left overnight. The cells were then treated for 24 hours as follows: control; Iloprost 1000 pg/ml; TGF-β 20 ng/ml; and TGF-β 20 ng/ml+Iloprost 1000 pg/ml.
After 24 hours the cells were lysed with Promega reporter lysis buffer (E 397A) at room temperature, 400 μl per […] and left for 15 minutes at room temperature. A 50 μl sample of the lysate was drawn and 100 μl of luciferase assay reagent (Promega E 148A) was added. Chemiluminensence was read using a plate reader program ARQ.1PT software micro P1.00.

Raynaud's phenomena = settings: patients; cited from earlier work
CTGF = CTGF ELISA on cultured skin fibroblasts; type: cell-based, human; settings: scleroderma fibroblasts
Description: 4 mm punch skin biopsies were taken from the forearms of healthy volunteers and from patients with active diffuse scleroderma. Fibroblasts from these biopsies were subcultured to passage 6 in Dulbecco's modified eagle medium with 10% fetal calf serum and Pen Strep solution and grown to confluence. Twenty-four hours before assay, the fibroblasts were switched to serum free media with exchange of media every eight (8) hours. Upon switching to serum free medium (L-ascorbic acid phosphate magnesium salt n-hydrate) (C6H6O9P) 3/2 Mg was added at a final concentration of 30 μg/ml. The following protocol was used for the CTGF ELISA: 1. Plate antigen on Nunc immuno plase Maxisorp surface (catalog number 442402). 2. CTGF standard curve by two fold serial dilution in 6 triplicates (see Table 1, below). 3. Add 50 μl of sample to each well. 4. Leave wells for 2 hours at room temperature. 5. Wash wells 4 times with PBSa. 6. Add first layer antibody (pAB2 rabbit anti-human CTGF (0.8 mg/ml)( 1/1280)) diluted to 625 ng/ml in blocking buffer (1% BSA/0.05% tween20/PBS). 7. Add 50 μl to each well and leave at room temperature for one hour. 8. Wash wells five times with PBS. 9. Add second layer antibody donkey anti-rabbit IgG, HRP linked whole antibody (Amersham Life Sciences, Catalog No. NA 934 diluted 1/3200 in block buffer). 10. […] Stop reaction with 50 μl per well of 1M H2SO4 and read OD at 450 nm.

scleroderma fibroblasts = test: ELISA for collagen (N propeptide of Type I collagen α chain) in cultured skin fibroblasts; type: cell-based, human
Description: 4 mm punch skin biopsies were taken from the forearms of healthy volunteers and from patients with active diffuse scleroderma. Fibroblasts from these biopsies were subcultured to passage 6 in Dulbecco's modified eagle medium with 10% fetal calf serum and Pen Strep solution and grown to confluence. Twenty-four hours before assay, the fibroblasts were switched to serum free media with exchange of media every eight (8) hours. Upon switching to serum free medium (L-ascorbic acid phosphate magnesium salt n-hydrate) (C6H6O9P) 3/2 Mg was added at a final concentration of 30 μg/ml. The supernatant fluid from the above described culture was diluted 1/100 in 0.1 M NaHCO3 and 100 μl of said diluted culture was added to each well of a 96 well maxisorp plate. The plate was then left at room temperature for two hours on a plate shaker. The plate was then washed once in PBS. 200 μl of 2% BSA in PBS was then added and the plate was left for two hours to block non-specific binding. The plate was then washed four times in PBS and first layer antibody, anti-N-procollagen I rabbit polyclonal, diluted 1/2000 in 1% BSA PBS, was added at 100 μl/well. The plate was left for two (2) hours at room temperature and then washed four times in PBS. A second layer antibody, HRP labeled goat anti-rabbit IgG 1/2000, was then added and left for two hours. […] The plate was then read on a multiwell analyser.

CTGF RNA = test: Northern blot for CTGF RNA; type: cell-based; settings: cells treated with TGF-β and iloprost
Experimental: Cultured cells are grown to confluence on 100 mm plates. The cells were then serum starved with ascorbate for 24 hours, after which conditioned medium with TGF-β and Iloprost was added. The cells were then lysed with TRIzol (Gibco catalog no. 15596-018) wherein 1 ml per plate of the TRIzol was added and the plate was left at room temperature for ten minutes. 200 μl of chloroform was then added and the cells were vortexed for 20 seconds. The cells were then left alone for 5 minutes at room temperature and then centrifuged in a microcentrifuge tube for 10 minutes at maximum speed at 4° C. The upper layer was then removed (layer containing RNA) and then mixed with an equal volume of isopropanol. The mixture was then centrifuged for 10 minutes to form a pellet of RNA. 0.5 ml of 70% ethanol in RNAse free purified water was then added to the pellet. The ethanol was then tipped off and the pellet was left to dry. After five minutes, the pellet was resuspended in 20 μl of RNAse free water and kept on ice. To assay the RNA using a photospectometer, a sample of the RNA was diluted 1/500 (volume 1 ml) and read at OD 260 nm (to measure RNA) and 280 nm (to measure protein). RNA concentration was calculated in terms of μg/μl=(OD260×40×dilution)/1000. […]

| Structure (SMILES) | inhibition of metastasis (metastasis) | platelet thrombus formation [1] | resistive index of the renal interlobar and cortical arteries [2] | time of most pronounced inhibitory effect on CTGF production (CTGF promoter) | safety and efficacy in Raynaud's phenomena (Raynaud's phenomena) | CTGF production (CTGF) | CTGF production (CTGF; listed as iloprost) | excessive production of collagen (scleroderma fibroblasts) | excessive production of collagen (scleroderma fibroblasts; listed as iloprost) | TGF-β induced synthesis of CTGF RNA (CTGF RNA) | TGF-β induced synthesis of CTGF RNA (CTGF RNA; listed as iloprost) |
| --- | --- | --- | --- | --- | --- | --- | --- | --- | --- | --- | --- |
| CCC#CC[C@H](C)[C@H](O)C#C[C@@H]1[C@H]2C/C(=C/COCC(=O)O)C[C@H]2C[C@H]1O [cicaprost] | effectively inhibit metastasis | – | – | – | – | – | – | – | – | – | – |
| CCC#CC[C@H](C)[C@H](O)C#C[C@@H]1[C@H]2C/C(=C/COCCCC(=O)O)C[C@H]2C[C@H]1O [eptaloprost] | antimetastically acting agents | – | – | – | – | – | – | – | – | – | – |
| CC#CCC(C)[C@H](O)/C=C/[C@@H]1[C@H]2C/C(=C/CCCC(=O)O)C[C@H]2C[C@H]1O (stereo partly drawn) [Iloprost, 5-(E)-(1S,5S,6R)-7-hydroxy-6[(E)-(3S,4RS)-3-hydroxy-4-methyl-1-octen-6-inyl]bicyclo[3.3.0]octen-3-ylidene pentanoic acid] | – | prevent platelet thrombus formation | reduction of the resistive index | most pronounced between hour 1 and hour 3 | safe and effective therapy | decrease in CTGF production | capable of inhibiting collagen production and CTGF production | inhibited | capable of inhibiting collagen production | inhibit CTGF production | blocked |
